ChEMBL document CHEMBL2151007, “Total Syntheses and Cytotoxicity of (R)- and (S)-Boehmeriasin A” (ACS Med Chem Lett, 2011)

Experiments:
MCF7 [1] = test: Cytotoxicity against human MCF7 cells; assay type: functional
[2] = Cytotoxicity against human NCI-ADR-RES cells after 48 hrs by Alamar blue assay; assay type: functional, cell-based
MCF7 [3] = test: Cytotoxicity against human MCF7 cells after 48 hrs by Alamar blue assay; assay type: functional, cell-based; conditions: MCF7, 48 h
COLO 205 [4] = test: Cytotoxicity against human COLO205 cells after 48 hrs by Alamar blue assay; assay type: functional, cell-based; conditions: COLO 205, 48 h
COLO 205 [5] = test: Cytotoxicity against human COLO205 cells; assay type: functional

Structure (SMILES)	GI50 (MCF7 [1])	IC50 [2]	IC50 (MCF7 [3])	IC50 (COLO 205 [4])	GI50 (COLO 205 [5])
COc1ccc2c3c(c4cc(OC)c(OC)cc4c2c1)CN1CCCC[C@@H]1C3	13 nM	36.7 nM	43.4 nM	4.18 nM	0.8 nM
COc1ccc2c3c(c4cc(OC)c(OC)cc4c2c1)CN1CCCC[C@H]1C3	–	434 nM	92.7 nM	103 nM	–
CC(=O)O[C@H]1C(=O)[C@@]2(C)[C@H]([C@H](OC(=O)c3ccccc3)[C@]3(O)C[C@H](OC(=O)[C@H](O)[C@@H](NC(=O)c4ccccc4)c4ccccc4)C(C)=C1C3(C)C)[C@]1(OC(C)=O)CO[C@@H]1C[C@@H]2O [PACLITAXEL]	–	> 6400 nM	1.62 nM	3.31 nM	–
